From patent publication US20250034182A1, “PHOSPHOLIPID COMPOUNDS AND METHODS OF MAKING AND USING THE SAME” (priority 2021, published 2025)

Legend:
Format in all cases: cell-based
HCV Replicon 2A = HCV Replicon 2A EC50 (Example Q); settings: Hepatitis C virus, 72 h, read-out: HCV Replicon 2A EC50 (nM) (per Ex. Q)
Method: (§1) Compounds were serially diluted in ten steps of 1:3 dilutions in 384-well plates. All serial dilutions were performed in four replicates per compound within the same 384-well plate. An HCV protease inhibitor ITMN-191 at […] was added as a control of 100% inhibition of HCV replication while puromycin at 10 mM was included as a control of 100% cytotoxicity. To each well of a black polystyrene 384-well plate (Greiner Bio-one, Monroe, NC), 90 μL of cell culture medium (without Geneticin) containing 2000 suspended HCV replicon cells was added with a Biotek μFlow workstation. For compound transfer into cell culture plates, 0.4 μL of compound solution from the compound serial dilution plate was transferred to the cell culture plate on a Biomek FX workstation. The DMSO concentration in the final assay wells was 0.44%. The plates were incubated for 3 days at 37° C. with 5% CO2 and 85% humidity. The HCV replicon assay was a multiplex assay, able to assess both cytotoxicity and antireplicon activity from the same well. The CC50 assay was performed first. The media in the 384-well cell culture plate was aspirated, and the wells were washed four times with 100 μL of PBS each, using a Biotek ELX405 plate washer. A volume of 50 μL of a solution containing 400 nM calcein AM (Anaspec, Fremont, CA) in 1×PBS was added to each well of the plate with a Biotek μFlow workstation. The plate was incubated for 30 min at room temperature before the fluorescence signal (excitation 490 nm, emission 520 nm) was measured with a Perkin-Elmer Envision plate reader. The EC50 assay was performed in the same wells as the CC50 assay. The calcein-PBS solution in the 384-well cell culture plate was aspirated with a Biotek ELX405 plate washer. A volume of 20 μL of Dual-Glo luciferase buffer (Promega, Madison, WI) was added to each well of the plate with a Biotek μFlow Workstation. The plate was incubated for 10 min at room temperature. A volume of 20 μL of a solution containing a 1:100 mixture of Dual-Glo Stop & Glo substrate (Promega, Madison, WI) and Dual-Glo Stop & Glo buffer (Promega, Madison, WI) was added to each well of the plate with a Biotek μFlow Workstation. The plate was then incubated at room temperature for 10 min before the luminescence signal was measured with a Perkin-Elmer Envision Plate Reader.

in vitro = settings: human
[1] = HCV Replicon 2A CC50, calcein AM (Example Q); settings: HCV replicon cells, calcein AM fluorescence, read-out: HCV Replicon 2A CC50 (nM) (per Ex. Q)
Method: as §1

## CCCCCCCCCCCCCCCCC[C@@H](COP(=O)(O)OC[C@@]1(C#N)O[C@@H](c2ccc3c(N)ncnn23)[C@H](O)[C@@H]1O)OCc1cc(F)cc(C#N)c1 [Compound 74, ((2R,3S,4R)-5-(4-aminopyrrolo[2,1-f][1,2,4]triazin-7-yl)-2-cyano-3,4-dihydroxytetrahydrofuran-2-yl)methyl ((S)-2-((3-cyano-5-fluorobenzyl)oxy)nonadecyl) hydrogen phosphate]
HCV Replicon 2A
  EC50: 22800 nM
In vitro
  CC50: 15 µM
[1]
  CC50 at 3 days: 35800 nM
